Assay [1] concerns lambsquarters. Nature of the assay: Test Example 4: herbicidal effect by soil treatment (Table 19, symbol O). The settings on record: amount of applied herbicide 320 g/ha. It counts as in vivo, lambsquarters (Chenopodium album). The method in brief: (§1)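 Three weeks of greenhouse growth at 25° C. to 30° C. followed a uniform surface spray of water-diluted emulsion at a predetermined herbicide amount. Seeds had been sown beforehand under about 1.5 cm of sterilized diluvial soil. Grading followed criteria set out in an earlier test.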

In assay [2] the test system is oval-leafed pondweed. Nature of the assay: Test Example 2: herbicidal activity, application during weed generation under submerged conditions (Table 17, symbol C). It counts as in vivo, oval-leafed pondweed (Monochoria vaginalis). As to conditions: AAH 320 g/ha; application during weed generation, submerged conditions. The method in brief:
(§2)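 In this pot test, flooded alluvial soil (water depth 4 cm) holds all three species sown as a mixture. Once seedlings have one to two leaves, the compound's emulsion, thinned with water to the intended dose, is poured on the water; grading follows after three weeks on the earlier criteria.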

For assay [3], the system named is wild oat. The experiment in a line: Test Example 4: herbicidal effect by soil treatment (Table 19, symbol I). As to conditions: amount of applied herbicide 320 g/ha. Format: in vivo, wild oat (Avena fatua). The method, boiled down: as §1
Assay [4] has as its system Italian ryegrass. The experiment in a line: Test Example 5: herbicidal effect by foliage application, plastic box (Table 20, symbol K). As to conditions: foliage application, 320 g/ha, three weeks after application. It counts as in vivo, Italian ryegrass (Lolium multiflorum). The method, boiled down:
(§3)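 Plants sown in sterilized diluvial soil and grown 14 days in a greenhouse at 25° C to 30° C, then sprayed on the foliage with the compound's emulsion diluted in water to a predetermined herbicide amount. Injury to weeds and crops scored three weeks after application on a visual rating scale.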

Assay [5] concerns redroot pigweed. The experiment in a line: Test Example 4: herbicidal effect by soil treatment (Table 19, symbol N). It counts as in vivo, redroot pigweed (Amaranthus retroflexus). As to conditions: amount of applied herbicide 320 g/ha. The method, boiled down:
as §1

The test system of assay [6] is chickweed. The experiment in a line: Test Example 4: herbicidal effect by soil treatment (Table 19, symbol P). Format: in vivo, common chickweed (Stellaria media). The settings on record: amount of applied herbicide 320 g/ha. The method in brief: as §1
Assay [7] has as its system oval-leafed pondweed. Nature of the assay: Test Example 1: herbicidal activity, application before weed generation under submerged conditions (Table 16, symbol C). Format: in vivo, oval-leafed pondweed (Monochoria vaginalis). The settings on record: amount of applied herbicide 320 g/ha. The method in brief: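 Alluvial soil was flooded to 4 cm depth, weed seeds were sown mixed and 2.5-leaf rice seedlings were transplanted. On sowing day, the compound's emulsion, diluted in water to a set dose, was applied to the water surface. Plants grew at 25–30 °C and were scored 0–5 after three weeks.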

For assay [8], the system named is Japanese bulrush. Nature of the assay: Test Example 2: herbicidal activity, application during weed generation under submerged conditions (Table 17, symbol B). As to conditions: AAH 320 g/ha; application during weed generation, submerged conditions. It counts as in vivo, Japanese bulrush (Schoenoplectus juncoides). The method, boiled down: as §2
Assay [9] deals with blackgrass. Nature of the assay: Test Example 4: herbicidal effect by soil treatment (Table 19, symbol J). It counts as in vivo, blackgrass (Alopecurus myosuroides). As to conditions: amount of applied herbicide 320 g/ha. The method, boiled down: as §1
Assay [10] relates to barnyard grass. The experiment in a line: Test Example 4: herbicidal effect by soil treatment (Table 19, symbol H). It counts as in vivo, barnyard grass (Echinochloa crus-galli). The settings on record: amount of applied herbicide 320 g/ha. The method in brief:
as §1

Assay [11] has as its system chickweed. Nature of the assay: Test Example 5: herbicidal effect by foliage application, plastic box (Table 20, symbol P). Format: in vivo, common chickweed (Stellaria media). The settings on record: foliage application, 320 g/ha, three weeks after application. The method in brief:
as §3

Assay [12] has as its system Chinese sprangletop. The experiment in a line: Test Example 3: herbicidal effect by foliage application, Wagner pot (Table 18, symbol D). It counts as in vivo, chinese sprangletop (Leptochloa chinensis). The settings on record: for herbicidal effect on Chinese sprangletop (D): 320 g/ha. The method, boiled down:
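Plants were sown in alluvial soil held under 0.1–0.5 cm standing water and grown 14 days in a greenhouse at 25–30 °C. An emulsifiable formulation, water-diluted to the set dose, was then sprayed onto the foliage, and effects were scored three weeks later using previously defined criteria.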

Assay [13] concerns late watergrass. Nature of the assay: Test Example 2: herbicidal activity, application during weed generation under submerged conditions (Table 17, symbol A). It counts as in vivo, late watergrass (Echinochloa oryzicola). The settings on record: AAH 320 g/ha; application during weed generation, submerged conditions. The method in brief:
as §2

In assay [14] the test system is lambsquarters. The experiment in a line: Test Example 5: herbicidal effect by foliage application, plastic box (Table 20, symbol O). Format: in vivo, lambsquarters (Chenopodium album). As to conditions: foliage application, 320 g/ha, three weeks after application. The method in brief:
as §3

For assay [15], the system named is persian speedwell. The experiment in a line: Test Example 5: herbicidal effect by foliage application, plastic box (Table 20, symbol R). It counts as in vivo, Persian speedwell (Veronica persica). The settings on record: foliage application, 320 g/ha, three weeks after application. The method in brief:
as §3

`CCOC(=O)Oc1c(C)nn(C)c(=O)c1-c1c(-c2ccccc2OC)sc2cc(F)ccc12` [3-024]: the “O: lambsquarters, herbicidal effect grade” value (“O: lambsquarters” below) was 4 (Herbicidal rate of 70% or more and less than 90%) in assay [1]; 4 (Herbicidal rate of 70% or more and less than 90%) in assay [14]. In addition, in [2], the “herbicidal effect rating, C: oval-leafed pondweed” value (“herbicidal effect rating, C” below) is 3 (Herbicidal rate of 40% or more and less than 70%). In addition, the “I: wild oat, herbicidal effect grade” value in [3] is 3 (Herbicidal rate of 40% or more and less than 70%). For the same compound, the “K: Italian ryegrass, herbicidal effect grade” value (“K: Italian ryegrass” below) in [4] is 4 (Herbicidal rate of 70% or more and less than 90%). In [5], the “N: redroot pigweed, herbicidal effect grade” value (shortened to “N: redroot pigweed”) is reported as 5 (Herbicidal rate of 90% or more (almost completely withered)). Moreover, the “P: chickweed, herbicidal effect grade” value in assay [6] was 3 (Herbicidal rate of 40% or more and less than 70%); in [11], 5 (Herbicidal rate of 90% or more (almost completely withered)). For the same compound, the “Herbicidal effect, C: oval-leafed pondweed” value (“Herbicidal effect, C” below) in assay [7] was 0 (Herbicidal rate of 5% or less (almost no effect)). Also, the “herbicidal effect rating, B: Japanese bulrush” value (“herbicidal effect rating, B” for short) in assay [8] is 3 (Herbicidal rate of 40% or more and less than 70%). In addition, the “J: blackgrass, herbicidal effect grade” value in assay [9] is 1 (Herbicidal rate of 5% or more and less than 20%). In addition, the “H: barnyard grass, herbicidal effect grade” value (“H: barnyard grass” for short) in assay [10] was 3 (Herbicidal rate of 40% or more and less than 70%). In addition, in assay [12] (amount of applied herbicide 320 g/ha), the “herbicidal effect on D: Chinese sprangletop” value was 3 (Herbicidal rate of 40% or more and less than 70%). In assay [13], the “herbicidal effect rating, A: late watergrass” value was 2 (Herbicidal rate of 20% or more and less than 40%). In assay [15], the “R: persian speedwell, herbicidal effect grade” value (from here on “R: persian speedwell”) is 1 (Herbicidal rate of 5% or more and less than 20%).

With `COc1ccccc1-c1sc2cc(OC(C)C)ccc2c1-c1c(O)c(C)nn(C)c1=O` [3-101], the “O: lambsquarters” value in assay [1] and in [14] was 5 (Herbicidal rate of 90% or more (almost completely withered)) each time. For the same compound, the “herbicidal effect rating, C” value in assay [2] is 2 (Herbicidal rate of 20% or more and less than 40%). Also, the “I: wild oat, herbicidal effect grade” value in assay [3] was 1 (Herbicidal rate of 5% or more and less than 20%). The “K: Italian ryegrass” value in [4] is reported as 5 (Herbicidal rate of 90% or more (almost completely withered)). For the same compound, in [5], the “N: redroot pigweed” value was 4 (Herbicidal rate of 70% or more and less than 90%). Moreover, the “P: chickweed, herbicidal effect grade” value in assay [6] was 4 (Herbicidal rate of 70% or more and less than 90%); in assay [11], 5 (Herbicidal rate of 90% or more (almost completely withered)). For the same compound, in assay [7], the “Herbicidal effect, C” value was 5 (Herbicidal rate of 90% or more (almost completely withered)). In addition, in assay [8], the “herbicidal effect rating, B” value was 3 (Herbicidal rate of 40% or more and less than 70%). The “J: blackgrass, herbicidal effect grade” value in [9] was 4 (Herbicidal rate of 70% or more and less than 90%). Besides, the “H: barnyard grass” value in assay [10] is reported as 5 (Herbicidal rate of 90% or more (almost completely withered)). Besides, the “herbicidal effect on Chinese sprangletop (D)” value (“herbicidal effect … (D)” for short) in assay [12] was 3 (Herbicidal rate of 40% or more and less than 70%). Also, the “herbicidal effect rating, A: late watergrass” value in [13] was 3 (Herbicidal rate of 40% or more and less than 70%). The “R: persian speedwell” value in assay [15] is reported as 5 (Herbicidal rate of 90% or more (almost completely withered)).

As to `CCCCOc1ccc2c(-c3c(O)c(C)nn(C)c3=O)c(-c3ccccc3OC)sc2c1` [3-105], the “O: lambsquarters” value in [1] is 3 (Herbicidal rate of 40% or more and less than 70%); in assay [14], 5 (Herbicidal rate of 90% or more (almost completely withered)). Besides, the “herbicidal effect rating, C” value in assay [2] was 4 (Herbicidal rate of 70% or more and less than 90%). For the same compound, the “I: wild oat, herbicidal effect grade” value in [3] is listed as 0 (Herbicidal rate of 5% or less (almost no effect)). Besides, in assay [4], the “K: Italian ryegrass” value is reported as 5 (Herbicidal rate of 90% or more (almost completely withered)). The “N: redroot pigweed” value in assay [5] is 4 (Herbicidal rate of 70% or more and less than 90%). The “P: chickweed, herbicidal effect grade” value in assay [6] was 3 (Herbicidal rate of 40% or more and less than 70%); in [11], 5 (Herbicidal rate of 90% or more (almost completely withered)). The “Herbicidal effect, C” value in assay [7] is given as 5 (Herbicidal rate of 90% or more (almost completely withered)). Besides, in assay [8], the “herbicidal effect rating, B” value was 3 (Herbicidal rate of 40% or more and less than 70%). For the same compound, the “J: blackgrass, herbicidal effect grade” value in assay [9] is 0 (Herbicidal rate of 5% or less (almost no effect)). Also, the “H: barnyard grass” value in [10] is 0 (Herbicidal rate of 5% or less (almost no effect)). Also, in assay [12], the “herbicidal effect … (D)” value is 5 (Herbicidal rate of 90% or more (almost completely withered)). Further, the “herbicidal effect rating, A: late watergrass” value in [13] was 3 (Herbicidal rate of 40% or more and less than 70%). Moreover, in assay [15], the “R: persian speedwell” value was 5 (Herbicidal rate of 90% or more (almost completely withered)).

For `COc1ccccc1-c1sc2cc(OCC(C)C)ccc2c1-c1c(O)c(C)nn(C)c1=O` [3-107], the “O: lambsquarters” value in assay [1] and in [14] was 5 (Herbicidal rate of 90% or more (almost completely withered)) throughout. For the same compound, the “herbicidal effect rating, C” value in [2] was 5 (Herbicidal rate of 90% or more (almost completely withered)). In addition, the “I: wild oat, herbicidal effect grade” value in assay [3] is on record as 0 (Herbicidal rate of 5% or less (almost no effect)). Also, the “K: Italian ryegrass” value in assay [4] was 5 (Herbicidal rate of 90% or more (almost completely withered)). Moreover, in [5], the “N: redroot pigweed” value is reported as 5 (Herbicidal rate of 90% or more (almost completely withered)). The “P: chickweed, herbicidal effect grade” value in assay [6] is 1 (Herbicidal rate of 5% or more and less than 20%); in [11], 5 (Herbicidal rate of 90% or more (almost completely withered)). For the same compound, the “Herbicidal effect, C” value in assay [7] is given as 5 (Herbicidal rate of 90% or more (almost completely withered)). In [8], the “herbicidal effect rating, B” value is reported as 5 (Herbicidal rate of 90% or more (almost completely withered)). Besides, the “J: blackgrass, herbicidal effect grade” value in assay [9] is recorded as 0 (Herbicidal rate of 5% or less (almost no effect)). In addition, the “H: barnyard grass” value in [10] was 3 (Herbicidal rate of 40% or more and less than 70%). In assay [12], the “herbicidal effect … (D)” value is 3 (Herbicidal rate of 40% or more and less than 70%). Further, the “herbicidal effect rating, A: late watergrass” value in [13] was 3 (Herbicidal rate of 40% or more and less than 70%). For the same compound, the “R: persian speedwell” value in assay [15] is recorded as 5 (Herbicidal rate of 90% or more (almost completely withered)).

The record behind these values is US20230085307A1, “PYRIDAZINONE COMPOUND AND HERBICIDE” (NISSAN CHEMICAL CORPORATION, priority 2019, published 2023).
